Laboratory results: patent US9463330B2, “Delivery of skin care products” (INTERNATIONAL SCIENTIFIC PTY LTD, priority 2010, dated 2016)

Key:
human skin = assay: Delivery of Curcumin into human skin by Multi-Photon Microscopy (Example 4); type: in vivo; conditions: 0.5% w/w in mineral oil, one hour, volar forearm
Excerpt: • 1) Mineral oil and a solution of Curcumin in mineral oil (0.5% w/w). • 2) 35 mm×35 mm segments of ETP008 and ETP012 magnetic materials; ETP008 being a parallel linear array of common pole pairs of 450 gauss peak flux with a centre to centre spatial separation of 4 mm; ETP012 being an oriented displaced dipolar magnetic element array created by drawing a secondary flux pattern over a linear pattern comprising 2.0 mm poles, creating a pair of displaced dipolar magnetic elements of pitch of 2.5 pairs per centimeter, with the inter-pair flux gradient being 700 gauss or 1750 gauss per centimeter and the secondary field elements being oriented at 90 degrees to the primary and consisting of parallel pairs of displaced dipolar magnetic elements of pitch of 1.5 mm, creating 3.5 pairs per centimeter, with 300 gauss per centimeter oriented flux. • 3) 35 mm×35 mm segments of a “passive” non-magnetic material which is identical to the active materials in all respects except for the presence of the magnetic field. • 4) Six healthy human subjects between the ages of 20 and 40. • 5) Multi-Photon Microscopy apparatus and computer software capable of processing Multi-Photon microscopy images. […]

human epidermal tissues = assay: Time dependent epidermal thickness change after 5% Urea gel, four magnetic array configurations vs passive (Example 3); type: in vivo; conditions: 30 and 60 minutes
Description: As a further example, an additional experiment was undertaken to explore the time dependent changes in measured epidermal thickness using four different configurations of the present invention when compared to passive application.
As in previous examples, all test areas of skin were treated using a 5% Urea gel formation and occluded with Parafilm. The urea and occlusive dressings were removed at 30 minutes and 60 minutes to allow measurements to be taken, with the urea and dressing being immediately replaced after the 30 minute test. Four different arrangements of the pairs of displaced magnetic dipolar elements present invention were studied to elucidate the complex relationship between enhanced delivery to human skin and the specific arrangements of the pairs of displaced dipolar elements that make up the present invention.
The four arrangements of pairs of displaced dipolar elements used in this experiment were as follows:
Type ETP000 was a form of the present invention is which a parallel linear array of common pole pairs of 250 gauss peak flux with a centre to centre spatial separation of 2 mm.
Type ETP006 was a combination of two intersecting parallel linear common pole arrays at 90 degrees orientation to each other having a peak magnetic flux of 300 gauss and a spatial separation between pairs of 3.5 mm.
Type ETP008 was a parallel linear array of common pole pairs of 450 gauss peak flux with a centre to centre spatial separation of 4 mm.
Type ETP011 was a combination of two intersecting parallel linear common pole arrays at 90 degrees orientation to each other having a peak magnetic flux of 150 gauss and a spatial separation between pairs of 3 mm.
The segment marked Passive indicted the normal changes in epidermal thickness in response to topical and occluded application of a Urea Gel. This is considered the control.

human epidermis [1] = assay: In vitro diffusion of urea across human epidermal membranes in Franz-type cells (Example 5); type: in vitro ADME; conditions: 5% urea gel
Excerpt: • 1) 5% w/w urea in VersaBase Gel (PCCA, Huston, Tex.). • 2) 11 mm diameter discs of flexible magnetic array matrix (ETP008) material and “passive” non-magnetic material which are identical to the active materials in all respects except for the presence of the magnetic field. • 3) Passive occlusive material consisting of a polymer film of similar thickness and cut to the same dimensions as the active magnetic polymer material. • 4) Epidermal membranes obtained from human skin sourced from abdominal region following abdominoplasty surgery. • 5) Pyrex glass Franz-type diffusion cells (enabling permeation across epidermal membranes of cross sectional area approximately 1.18 cm^2); receptor volume approximately 3.5 mL. • 6) Phosphate buffered saline (PBS). • 7) Thermostatted water bath with magnetic stirring capability. • 8) DMAB reagent (4% w/v) prepared with conc. sulphuric acid (4% v/v) in alcohol (95%). • 9) Digital portable LCR meter (TH2821/A/B, Changzhou Tonghui Electronic Co., Ltd, China). Method Preparation of Epidermal Membranes
Epidermal membranes were obtained by the heat separation method (Kligman & Christophers, 1963 Preparation of isolated sheets of human stratum corneum. Arch. Dermatol. 88: 70-73).
• 1) The membrane was placed between the donor and receptor compartment of the cell and allowed to equilibrate for 1 h with PBS in the receptor compartment which was stirred continuously with a magnetic stirrer. • 2) PBS was placed in the donor (1 mL) and receptor (approx. 3.5 mL) compartments of the cell which were then placed in a water bath maintained at 37±0.5° C. • 3) Epidermal membrane integrity was determined by visual inspection over a bright light and electrical resistance (kΩ) measurements using a digital portable LCR meter (TH2821/A/B, Changzhou Tonghui Electronic Co., Ltd, China). The measurements were taken by immersing the stainless steel probe lead tips, one each in the donor and receptor compartments (Fasano et al, 2002 Rapid integrity assessment of rat and human epidermal membranes for in vitro dermal regulatory testing: correlation of electrical resistance with tritiated water permeability. Toxicol. In Vitro 16: 731-40). […] Spectroscopic Analyses:
Urea quantification was based on the analytical method of Knorst et al 1997 (Analytical methods for measuring urea in pharmaceutical formulations. J. Pharm. Biomed. Anal. 15: 1627-32), a modified derivatisation by p-dimethylaminobenzaldehyde (DMAB) to convert urea into a coloured compound.
Derivatisation of urea in skin diffusate employed equal volumes of sample solution and the DMAB reagent (4% w/v) which was prepared with conc. sulphuric acid (4% v/v) in alcohol (95%). In this case 200 μL of the urea sample was mixed with 200 μL of the DMAB reagent. After 10 min the absorbance of the coloured derivatised solution was measured at 420 nm using a UVmini-1240 UV-Vis spectrophotometer (Shimadzu Scientific Instruments) against an appropriate reagent blank (receptor solution processed as for skin permeation receptor solution samples). Spectrophotometric analysis was carried out for quantitative analysis of urea that permeated the skin. […] The limit of detection (LOD) and limit of quantitation (LOQ) of the assay were 0.83 and 2.5 μg/mL respectively.
The results were compiled from nine cells containing the magnetic array film and eight control cells containing the passive non-magnetic film. A comparison of the cumulative amount of urea penetrating the epidermis to the receptor solution (μg/cm^2) versus time (mins) was plotted for passive and magnetic array enhanced applications (FIG. 16).

human epidermis [2] = assay: Time dependent epidermal thickness change by OCT after Urea, two magnetic array types vs passive (Example 2); type: in vivo; conditions: for increase in epidermal thickness: passive regions
Excerpt: In a further in vivo experience, two examples of arrays comprising pairs of displaced magnetic dipolar elements of the present invention were studied to illustrate the essential requirement for the pairs of displaced magnetic dipolar elements to be correctly configured to the diamagnetic property of the active ingredient to be delivered, in addition to the dielectric properties of the target receptor barrier.
Urea was applied to skin in a similar manner to Example 1. The urea and occlusive dressings were removed at 10 minute time periods to take measurements using OTC, with the urea and occlusive dressing being immediately replaced after each set of measurements. Each site was imaged in triplicate for each time point (i.e. three sites, triplicate images, seven time points). The laser images were then analysed to determine the differential change in skin morphology in response to the penetration of urea into facial skin under the influence of two different configurations of the present invention. FIG. 12 summaries this experiment, with the thickness of the epidermis provided next to the image.
Magnetic array Type ETP000 is a magnetic array in which a parallel linear array of common pole pairs of 250 gauss peak flux with a centre to centre spatial separation of 2 mm. Magnetic array Type ETP008 is a parallel linear array of common pole pairs of 450 gauss peak flux with a centre to centre spatial separation of 4 mm.

| SMILES | Curcumin concentrations in the skin compared with passive material (human skin; ETP008 magnetic material) | Curcumin concentrations in the skin compared with passive material (human skin; ETP012 magnetic material) | penetration (changes in epidermal thickness) compared to passive (human epidermal tissues; Type 011 arrangement, 5% Urea gel) | penetration (changes in epidermal thickness) compared to passive (human epidermal tissues; Type ETP000, 5% Urea gel) | penetration (changes in epidermal thickness) compared to passive (human epidermal tissues; Type ETP006, 5% Urea gel) | penetration (changes in epidermal thickness) compared to passive (human epidermal tissues; Type ETP008, 5% Urea gel) | mean cumulative permeation over 2 h (human epidermis [1]; magnetic array material ETP008, mean±sem) [μg/cm^2] | lag time (human epidermis [1]; magnetic film array ETP008) [min] | steady state flux (human epidermis [1]; magnetic film array ETP008) [μg/cm^2·min] | lag time (human epidermis [1]; non-magnetic passive material) [min] | steady state flux (human epidermis [1]; non-magnetic passive material) [μg/cm^2·min] | mean cumulative permeation over 2 h (human epidermis [1]; non-magnetic passive material, mean±sem) [μg/cm^2] | epidermal thickness change (human epidermis [2]; Magnetic array Type ETP000, 30 minutes) [%] | epidermal thickness change (human epidermis [2]; Magnetic array Type ETP000, 60 minutes) [%] | epidermal thickness change (human epidermis [2]; Magnetic array Type ETP008, 30 minutes) [%] | epidermal thickness change (human epidermis [2]; Magnetic array Type ETP008, 60 minutes) [%] | increase in epidermal thickness (human epidermis [2]; 30 minutes) [%] | increase in epidermal thickness (human epidermis [2]; 60 minutes) [%] |
| --- | --- | --- | --- | --- | --- | --- | --- | --- | --- | --- | --- | --- | --- | --- | --- | --- | --- | --- |
| COc1cc(/C=C/C(=O)CC(=O)/C=C/c2ccc(O)c(OC)c2)ccc1O [Curcumin] | significant increase | significant increase |  |  |  |  |  |  |  |  |  |  |  |  |  |  |  |  |
| NC(N)=O [Urea] |  |  | decreasing normal penetration | enhanced penetrations to different degrees over time | enhanced penetrations to different degrees over time | enhanced penetrations to different degrees over time | 89.54±7.34 | 21.13 ± 6.27 | 0.75±0.06 | 40.58 ± 3.98 | 0.24±0.03 | 20.83±2.02 | 119.5 | 113.25 | 112.6 | 118 | 103.2 | 110 |
